Test results: US20180298344A1, “Realistic Humanized Model of Disease Matrix Environment for Evaluation of Therapeutic Reversal or Cell Fate” (Yale University, priority 2017, published 2018)

How the values were obtained:
[1] = test system: human microvascular pericytes (PC); assay: Long-term (28 day) differentiation of PC on glass coverslips: matrix deposition, fibrotic lesions, α-SMA and vimentin; assay type: cell-based; conditions: for increase in the formation of lesions compared with nonactivated control: glass
Experimental: Human microvascular PC were isolated from a readily available and nearly inexhaustible source, human placental tissue, by microvascular segment explant outgrowth (Sava et al., Microcirculation, 2015, 22:54-67; Ayres-Sander et al., PLoS One, 2013, 8:e60025; Lauridsen et al., FASEB, 2014, 28:1166-1180; Maier et al., Microcirculation, 2010, 17:367-380). Human placental tissue was segmented, digested with collagenase, and the resulting cells were cultured in M199 (Gibco, Grand Island, NY, USA) medium supplemented with 20% FBS (Hyclone Laboratories, Logan, Utah, USA), and 1% penicillin-streptomycin (Gibco). Isolated pericytes were screened by flow cytometry against NG2 (H-300, Santa Cruz Biotechnology), CD90 (K-15, Santa Cruz), CD146 (P1H12, Biolegend, San Diego, Calif., USA), PDGFR-β (18A2, Santa Cruz), α-SMA (1A4, Santa Cruz), SMMHC (N-16, Santa Cruz), CD31 (C20, Santa Cruz), CD34 (581, Sigma) and CD45 (MEM-28, Sigma). As negative control, PC were incubated with isotype matched IgG. Samples were run on a Stratedigm S1000EXi Flow Cytometer (Stratedigm, San Jose, Calif. USA) and analyzed with FlowJo software (Tree Star, Ashland, Oreg., USA).
For short term (7 day) differentiation studies, PC (passage 3-7) were seeded on healthy or IPF lung tissue slices, polyacrylamide hydrogels, or 25 mm glass coverslips (VWR) at 100×10^3 cells per sample and activated with control media (non-activated), or 1 ng/mL TGF-β1 (PeproTech, Rocky Hill, N.J., USA) for 7 days (18, 19). For bleomycin activation, the cells were activated with 1 μg/mL bleomycin sulfate (Cayman Chemical, Ann Arbor, Mich.) for 1 day and the media was replaced with non-activated media for the remaining 6 days (Sava et al., Microcirculation, 2015, 22:54-67; Sterling et al., J Bio Chem, 1983, 258:14438-14444). TGF-β1 and bleomycin concentrations were based on reports consistent with activation of fibroblasts (Sava et al., Microcirculation, 2015, 22:54-67; Maroni and Davis, Bio Reprod, 2012, 87:127). Treatment with CCG-1423 (Sigma) was performed at day 0 for the full 7 days, and labeled as early treatment, or at day 7 and performed for 7 days, and labeled as late treatment. For long-term (28 day) differentiation studies, PC were cultured on 25 mm glass coverslips (VWR) or normal lung sections and the cell media was supplemented with 100 μM ascorbic acid (Spectrum Chemicals, New Brunswick, N.J., USA) to induce matrix deposition. Activation was performed with control media (non-activated), or 1 ng/mL TGF-β1. The media was replaced 3 times a week for 4 consecutive weeks (28 days) in order to mimic the chronic conditions present during fibrosis (Moeller et al., Int J Biochem Cell Biol, 2008, 40:362-382; Sava et al., Microcirculation, 2015, 22:54-67). Treatment with nintedanib (Santa Cruz) was performed at day 21 for the remaining 7 days, and labeled as early treatment, or at day 28 and performed for 2 days, and labeled as late treatment. Concentrations of CCG-1423 (1.0 nM), and nintedanib (1.0 nM) are based on therapeutic dose in studies performed on myofibroblasts (Evelyn et al., Mol Cancer Ther, 2007, 6:2249-2260, Hostettler et al., Resp Res, 2014, 15:157; Conte et al., Eur J Pharm Sci, 2014, 58:13-19; Shi et al., PLoS One, 2011, 6:e28134).
Pericyte pro-fibrotic activation/transition/phenotype was evaluated by positive staining for α-smooth muscle actin (SMA) using anti-α-SMA (1A4, Santa Cruz) and anti-vimentin (V630, Sigma). For matrix composition analysis, the coverslips were stained with anti-collagen I (ab233446, Abcam, Cambridge, Mass., USA), anti-laminin (Clone ab11575, Abcam), anti-collagen IV (Clone C1926, Sigma), or anti-fibronectin (Clone F3648, Sigma) antibodies.

tumor = conditions: by reducing PC coverage; cited from earlier work
[2] = nintedanib 7 days, TGF-β1-activated PC on glass, flow cytometry

Compound	expression of vimentin [1, 2]	expression of α-SMA [1, 2]	fibrotic node formation ([1]; nintedanib 7 days, TGF-β1-activated PC on glass, versus TGF-β1)	fibronectin ([1]; nintedanib 7 days, TGF-β1-activated PC on glass, versus TGF-β1, immunoblotting, P=0.002)	collagen I ([1]; nintedanib 7 days, TGF-β1-activated PC on glass, versus TGF-β1, immunoblotting, P=0.01)	tumor growth (tumor)	increase in the formation of lesions compared with nonactivated control ([1]; day 14 of TGF-β1 exposure, P<0.001) [fold]	increase in the formation of lesions compared with nonactivated control ([1]; day 28 of TGF-β1 exposure, P<0.01) [fold]	vimentin expression compared with nonactivated control ([1]; long-term TGF-β1 activation on glass, P<0.0001)	α-SMA expression compared with nonactivated control ([1]; long-term TGF-β1 activation on glass, P=0.011)
COC(=O)c1ccc2c(c1)NC(=O)/C2=C(\Nc1ccc(N(C)C(=O)CN2CCN(C)CC2)cc1)c1ccccc1 [nintedanib]	without affecting	without affecting	reduced	reduced	reduced	inhibit tumor growth				
TGF-β1: transforming growth factor (TGF)-β1, fibrotic activator, used at 1 ng/mL							2.2	1.8	significant increase	significant increase
